Reference: ChEMBL document CHEMBL4130540, “Multifunctional iminochromene-2H-carboxamide derivatives containing different aminomethylene triazole with BACE1 inhibitory, neuroprotective and metal chelating properties targeting Alzheimer's disease” (Eur J Med Chem, 2017)
Calls of active or inactive are those of the source. The rule behind the calls is not given here.

Legend:
Beta-secretase 1 [1] = target: T1, Beta-secretase 1 (Homo sapiens, UniProt P56817); test: Inhibition of recombinant human BACE1 (1 to 460 residues) expressed in baculovirus infected insect cells at 50 uM using Rh-EVNLDAEFK-Quencher as substrate incubated under dark condition for 90 mins by FRET assay relative to control
Beta-secretase 1 [2] = target: T1, Beta-secretase 1; test: Inhibition of recombinant human BACE1 (1 to 460 residues) expressed in baculovirus infected insect cells at 10 uM using Rh-EVNLDAEFK-Quencher as substrate incubated under dark condition for 90 mins by FRET assay relative to control
PC-12 [3] = test: Neuroprotection against amyloid beta (25 to 35)-induced cell death in rat PC12 cells at 25 uM preincubated for 3 hrs followed by amyloid beta addition measured after 24 hrs by MTT assay relative to control; assay type: functional
PC-12 [4] = test: Neuroprotection against amyloid beta (25 to 35)-induced cell death in rat PC12 cells at 15 uM preincubated for 3 hrs followed by amyloid beta addition measured after 24 hrs by MTT assay relative to control; assay type: functional
PC-12 [5] = test: Cytotoxicity against rat PC12 cells up to 100 uM after 24 hrs by MTT assay; assay type: cell-based; conditions: pc-12, 24 h
PC-12 [6] = test: Neuroprotection against amyloid beta (25 to 35)-induced cell death in rat PC12 cells at 10 uM preincubated for 3 hrs followed by amyloid beta addition measured after 24 hrs by MTT assay relative to control; assay type: functional
[7] = Metal chelating activity assessed as compound-Fe2+ complex formation at 400 uM preincubated with ferrous ion FeCl2 followed by ferrozine addition measured after 10 mins by spectroscopic method
Beta-secretase 1 [8] = target: T1, Beta-secretase 1; test: Inhibition of recombinant human BACE1 (1 to 460 residues) expressed in baculovirus infected insect cells using Rh-EVNLDAEFK-Quencher as substrate incubated under dark condition for 90 mins by FRET assay
PC-12 [9] = test: Neuroprotection against amyloid beta (25 to 35)-induced cell death in rat PC12 cells preincubated for 3 hrs followed by amyloid beta addition measured after 24 hrs by MTT assay; assay type: functional, cell-based
[10] = Metal chelating activity assessed as compound-Fe2+ complex formation at 20 uM after 30 mins by UV-Visible spectroscopic method
[11] = Metal chelating activity assessed as mole fraction of compound required to show 3:2 stoichiometry for Fe2+-compound complex at 20 uM after 30 min by UV-Visible spectroscopic method

T1 sequence (P56817 whole entry, the tested form may be a part): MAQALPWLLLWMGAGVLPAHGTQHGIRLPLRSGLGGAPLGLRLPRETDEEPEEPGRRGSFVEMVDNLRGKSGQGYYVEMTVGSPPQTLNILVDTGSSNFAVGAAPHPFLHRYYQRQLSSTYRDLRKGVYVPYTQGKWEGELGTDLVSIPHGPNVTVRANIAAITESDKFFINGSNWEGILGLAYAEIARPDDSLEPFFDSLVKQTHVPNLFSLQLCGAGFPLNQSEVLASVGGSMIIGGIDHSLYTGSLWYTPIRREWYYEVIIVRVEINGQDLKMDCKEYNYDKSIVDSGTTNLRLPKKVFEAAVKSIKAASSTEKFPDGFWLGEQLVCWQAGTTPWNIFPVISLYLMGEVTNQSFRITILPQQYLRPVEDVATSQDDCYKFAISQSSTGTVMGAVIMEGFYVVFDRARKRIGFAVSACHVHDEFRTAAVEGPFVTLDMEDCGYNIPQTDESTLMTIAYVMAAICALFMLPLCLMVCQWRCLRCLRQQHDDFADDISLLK

Compound	inhibition (Beta-secretase 1 [1]) [%]	inhibition (Beta-secretase 1 [2]) [%]	Activity (PC-12 [3]) [%]	Activity (PC-12 [4]) [%]	Activity (PC-12 [5])	Activity (PC-12 [6]) [%]	Activity [7] [%]	IC50 (Beta-secretase 1 [8]) [µM]	IC50 (PC-12 [9]) [µM]	Activity [10]	Activity [11] [molar ratio]
Cc1ccc(Cn2cc(CNc3ccc(Br)cc3NC(=O)c3cc4ccccc4oc3=N)nn2)cc1	52.4	38.3	19.2	83.8	Non-Toxic						
COc1ccc(Cn2cc(CNc3ccc(Br)cc3NC(=O)c3cc4ccccc4oc3=N)nn2)cc1	34.5	10	22		Non-Toxic	28.4					
O=C(O)CN(CCN(CC(=O)O)CC(=O)O)CC(=O)O							96.4				
N=c1oc2ccccc2cc1C(=O)Nc1cc(Br)ccc1NCc1cn(Cc2ccc(Cl)c(Cl)c2)nn1	60.8	52	49.8		Non-Toxic	21.8		7.5	90.5		
O=C(O)/C=C/c1ccc(O)c(O)c1 [CAFFEIC ACID]									75.8		
N=c1oc2ccccc2cc1C(=O)Nc1cc(Br)ccc1NCc1cn(Cc2ccc(Br)cc2)nn1	100	72.3	37.5		Non-Toxic	16.4	45.2	6.4	37.8	Active	1.5
N=c1oc2ccccc2cc1C(=O)Nc1cc(Br)ccc1NCc1cn(CCCCN2C(=O)c3ccccc3C2=O)nn1	77.6	55.7			Non-Toxic	67.8	12.8	6.8	6.8		
N=c1oc2ccccc2cc1C(=O)Nc1cc(Br)ccc1NCc1cn(Cc2ccccc2)nn1	25.2	12.1			Non-Toxic						
N=c1oc2ccccc2cc1C(=O)Nc1cc(Br)ccc1NCc1cn(Cc2ccc(F)cc2)nn1	45.9	21.3	22.2		Non-Toxic	13.1					
N=c1oc2ccccc2cc1C(=O)Nc1cc(Br)ccc1NCc1cn(Cc2cccc(Cl)c2Cl)nn1	62	47.8	57.2		Non-Toxic	23.6		15.6	18.9		
N=c1oc2ccccc2cc1C(=O)Nc1cc(Br)ccc1NCc1cn(CCCN2C(=O)c3ccccc3C2=O)nn1	84.2	83.5	100		Non-Toxic	78.8	10.2	2.2	7.9		
